According to the kinase profiling compilation of Christmann-Franck et al. (2016):

How the values were obtained:
Test in all cases: KINOMEscan competition binding
Conditions in all cases: compound 0.5 µM
[1] = target: ADCK4 (human) (UniProt Q96D53)
[2] = target: BMX (human) (UniProt P51813)
[3] = target: BTK (human) (UniProt Q06187)
[4] = target: CDC42BPG (human) (UniProt Q6DT37)
[5] = target: CDK14 (human) (UniProt O94921)
[6] = target: CDK2 (human) (UniProt P24941)
[7] = target: CDKL1 (human) (UniProt Q00532)
[8] = target: DDR2 (human) (UniProt Q16832)
[9] = target: DSTYK (human) (UniProt Q6XUX3)
[10] = target: EIF2AK2 (human) (UniProt P19525)
[11] = target: EPHA3 (human) (UniProt P29320)
Sequence of EPHA3 (human) (P29320 whole entry, looked up): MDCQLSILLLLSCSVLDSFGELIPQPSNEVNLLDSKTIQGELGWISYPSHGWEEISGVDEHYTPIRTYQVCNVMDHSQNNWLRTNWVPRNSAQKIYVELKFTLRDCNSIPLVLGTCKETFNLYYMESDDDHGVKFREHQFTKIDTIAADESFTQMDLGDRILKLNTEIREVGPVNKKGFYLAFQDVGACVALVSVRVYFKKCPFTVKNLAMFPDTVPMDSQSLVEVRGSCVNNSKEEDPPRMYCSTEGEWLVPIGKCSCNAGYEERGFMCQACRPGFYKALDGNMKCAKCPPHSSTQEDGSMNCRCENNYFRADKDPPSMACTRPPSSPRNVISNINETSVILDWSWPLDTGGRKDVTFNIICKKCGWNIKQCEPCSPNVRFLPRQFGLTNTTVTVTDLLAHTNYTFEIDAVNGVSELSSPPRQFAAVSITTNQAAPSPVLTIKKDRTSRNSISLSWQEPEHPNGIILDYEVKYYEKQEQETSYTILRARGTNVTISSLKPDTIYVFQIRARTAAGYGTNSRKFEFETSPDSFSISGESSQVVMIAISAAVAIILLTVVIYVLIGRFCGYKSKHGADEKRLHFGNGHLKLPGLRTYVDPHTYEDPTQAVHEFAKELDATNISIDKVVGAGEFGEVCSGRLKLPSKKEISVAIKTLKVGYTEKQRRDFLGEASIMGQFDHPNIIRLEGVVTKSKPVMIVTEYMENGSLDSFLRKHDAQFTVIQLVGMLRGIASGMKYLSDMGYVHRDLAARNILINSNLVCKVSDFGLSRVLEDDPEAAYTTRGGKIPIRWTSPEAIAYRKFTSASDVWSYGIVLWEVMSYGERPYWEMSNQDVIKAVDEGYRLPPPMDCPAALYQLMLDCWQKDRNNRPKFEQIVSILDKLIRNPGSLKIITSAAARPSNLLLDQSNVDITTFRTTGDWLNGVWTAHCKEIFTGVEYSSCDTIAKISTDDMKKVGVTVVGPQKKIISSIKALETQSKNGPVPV

[12] = target: ERBB4 (human) (UniProt Q15303)
[13] = target: FLT1 (human) (UniProt P17948)
[14] = target: HUNK (human) (UniProt P57058)
[15] = target: IRAK1 (human) (UniProt P51617)
[16] = target: ITK (human) (UniProt Q08881)
[17] = tested on: KIT (human), P10721 [V559D]
[18] = target: MAP2K2 (human) (UniProt P36507)
[19] = target: MAP3K3 (human) (UniProt Q99759)
[20] = target: MAP3K5 (human) (UniProt Q99683)
[21] = target: MAPK7 (human) (UniProt Q13164)
[22] = target: MARK2 (human) (UniProt Q7KZI7)
Sequence of MARK2 (human) (Q7KZI7 whole entry, looked up): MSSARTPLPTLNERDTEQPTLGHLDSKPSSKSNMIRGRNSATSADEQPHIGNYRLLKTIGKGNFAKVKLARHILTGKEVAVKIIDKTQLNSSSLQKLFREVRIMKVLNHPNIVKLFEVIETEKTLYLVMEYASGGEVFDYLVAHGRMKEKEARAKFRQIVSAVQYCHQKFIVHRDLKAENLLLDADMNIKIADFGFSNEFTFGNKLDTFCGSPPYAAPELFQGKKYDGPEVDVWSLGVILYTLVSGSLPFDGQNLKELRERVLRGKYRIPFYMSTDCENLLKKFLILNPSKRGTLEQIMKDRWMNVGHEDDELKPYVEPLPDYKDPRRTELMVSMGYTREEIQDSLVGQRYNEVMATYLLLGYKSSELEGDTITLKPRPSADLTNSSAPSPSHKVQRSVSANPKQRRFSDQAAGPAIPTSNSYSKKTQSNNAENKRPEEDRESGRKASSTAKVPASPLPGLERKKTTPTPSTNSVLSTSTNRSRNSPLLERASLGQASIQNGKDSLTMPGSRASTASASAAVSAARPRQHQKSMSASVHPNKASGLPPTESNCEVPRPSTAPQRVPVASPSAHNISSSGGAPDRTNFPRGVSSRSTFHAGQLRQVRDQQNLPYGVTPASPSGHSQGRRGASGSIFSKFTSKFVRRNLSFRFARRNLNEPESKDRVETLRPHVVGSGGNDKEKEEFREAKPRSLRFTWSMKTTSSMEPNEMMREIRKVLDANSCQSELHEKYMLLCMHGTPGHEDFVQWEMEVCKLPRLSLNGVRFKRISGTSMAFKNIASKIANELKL

[23] = target: MYO3B (human) (UniProt Q8WXR4)
[24] = target: NEK3 (human) (UniProt P51956)
[25] = target: NEK5 (human) (UniProt Q6P3R8)
[26] = target: NEK9 (human) (UniProt Q8TD19)
[27] = target: NTRK2 (human) (UniProt Q16620)
Sequence of NTRK2 (human) (Q16620 whole entry, looked up): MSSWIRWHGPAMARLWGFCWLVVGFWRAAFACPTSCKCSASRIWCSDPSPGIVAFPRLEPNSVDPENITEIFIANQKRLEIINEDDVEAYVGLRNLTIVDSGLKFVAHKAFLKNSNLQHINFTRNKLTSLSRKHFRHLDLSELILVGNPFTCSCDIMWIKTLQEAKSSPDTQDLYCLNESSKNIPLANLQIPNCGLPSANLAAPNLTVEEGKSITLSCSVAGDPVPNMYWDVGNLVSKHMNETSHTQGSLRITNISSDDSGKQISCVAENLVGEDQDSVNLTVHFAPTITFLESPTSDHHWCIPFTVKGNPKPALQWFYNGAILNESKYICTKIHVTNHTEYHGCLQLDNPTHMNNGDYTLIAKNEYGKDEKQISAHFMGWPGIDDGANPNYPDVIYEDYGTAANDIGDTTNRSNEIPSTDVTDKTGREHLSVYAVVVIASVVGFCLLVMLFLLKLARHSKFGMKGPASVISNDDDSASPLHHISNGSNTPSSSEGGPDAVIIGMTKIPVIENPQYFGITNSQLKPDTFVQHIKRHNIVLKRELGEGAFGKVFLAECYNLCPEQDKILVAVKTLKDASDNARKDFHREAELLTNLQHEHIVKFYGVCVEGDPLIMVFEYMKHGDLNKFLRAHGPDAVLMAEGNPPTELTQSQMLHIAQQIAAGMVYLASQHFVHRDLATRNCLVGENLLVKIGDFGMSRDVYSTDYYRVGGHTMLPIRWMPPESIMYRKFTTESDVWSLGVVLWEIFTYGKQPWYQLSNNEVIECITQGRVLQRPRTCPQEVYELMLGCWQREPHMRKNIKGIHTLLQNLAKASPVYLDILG

[28] = target: PAK1 (human) (UniProt Q13153)
Sequence of PAK1 (human) (Q13153 whole entry, looked up): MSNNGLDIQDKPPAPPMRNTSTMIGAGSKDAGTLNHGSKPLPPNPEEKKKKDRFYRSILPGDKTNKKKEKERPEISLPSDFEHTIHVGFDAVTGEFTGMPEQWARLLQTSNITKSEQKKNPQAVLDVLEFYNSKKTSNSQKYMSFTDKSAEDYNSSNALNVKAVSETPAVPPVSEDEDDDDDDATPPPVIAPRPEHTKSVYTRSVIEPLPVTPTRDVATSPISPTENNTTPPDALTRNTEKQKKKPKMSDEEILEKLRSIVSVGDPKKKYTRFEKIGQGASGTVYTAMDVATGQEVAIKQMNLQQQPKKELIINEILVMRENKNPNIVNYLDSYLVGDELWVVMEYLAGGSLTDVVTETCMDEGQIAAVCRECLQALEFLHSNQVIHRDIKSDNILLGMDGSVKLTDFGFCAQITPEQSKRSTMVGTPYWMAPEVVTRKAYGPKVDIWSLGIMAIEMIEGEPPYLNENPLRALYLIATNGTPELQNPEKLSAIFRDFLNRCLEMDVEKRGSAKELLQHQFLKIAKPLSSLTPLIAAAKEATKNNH

[29] = target: PHKG2 (human) (UniProt P15735)
[30] = target: PIK3C2B (human) (UniProt O00750)
[31] = target: PIM3 (human) (UniProt Q86V86)
[32] = target: PRKCD (human) (UniProt Q05655)
[33] = target: PRKCH (human) (UniProt P24723)
[34] = target: PRKD3 (human) (UniProt O94806)
[35] = target: RIOK1 (human) (UniProt Q9BRS2)
[36] = target: RPS6KA6 KD2 (human) (UniProt Q9UK32)
[37] = target: SRMS (human) (UniProt Q9H3Y6)
Sequence of SRMS (human) (Q9H3Y6 whole entry, looked up): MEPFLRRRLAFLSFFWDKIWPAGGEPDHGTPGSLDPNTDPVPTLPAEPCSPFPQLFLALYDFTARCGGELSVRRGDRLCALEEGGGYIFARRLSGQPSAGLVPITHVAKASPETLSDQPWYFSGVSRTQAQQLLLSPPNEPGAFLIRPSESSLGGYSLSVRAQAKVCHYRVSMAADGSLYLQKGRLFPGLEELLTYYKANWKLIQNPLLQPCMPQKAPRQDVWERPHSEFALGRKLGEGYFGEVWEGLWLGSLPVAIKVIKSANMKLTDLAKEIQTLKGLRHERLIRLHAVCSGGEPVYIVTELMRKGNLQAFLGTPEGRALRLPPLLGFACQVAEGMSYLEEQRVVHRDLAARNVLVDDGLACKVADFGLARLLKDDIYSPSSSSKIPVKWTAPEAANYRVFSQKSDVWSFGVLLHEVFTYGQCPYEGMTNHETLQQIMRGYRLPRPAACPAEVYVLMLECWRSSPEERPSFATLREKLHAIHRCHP

[38] = target: STK17B (human) (UniProt O94768)
Sequence of STK17B (human) (O94768 whole entry, looked up): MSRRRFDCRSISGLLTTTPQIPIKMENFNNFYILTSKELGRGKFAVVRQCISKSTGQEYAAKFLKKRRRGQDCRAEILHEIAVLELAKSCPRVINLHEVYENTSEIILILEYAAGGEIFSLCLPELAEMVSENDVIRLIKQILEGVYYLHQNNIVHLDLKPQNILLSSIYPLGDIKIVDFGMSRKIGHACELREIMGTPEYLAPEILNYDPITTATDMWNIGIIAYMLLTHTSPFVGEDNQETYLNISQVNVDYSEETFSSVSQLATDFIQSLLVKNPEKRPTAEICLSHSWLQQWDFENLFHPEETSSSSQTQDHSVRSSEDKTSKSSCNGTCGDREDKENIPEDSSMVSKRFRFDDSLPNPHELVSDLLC

[39] = target: STK24 (human) (UniProt Q9Y6E0)
[40] = target: STK35 (human) (UniProt Q8TDR2)
Sequence of STK35 (human) (Q8TDR2 whole entry, looked up): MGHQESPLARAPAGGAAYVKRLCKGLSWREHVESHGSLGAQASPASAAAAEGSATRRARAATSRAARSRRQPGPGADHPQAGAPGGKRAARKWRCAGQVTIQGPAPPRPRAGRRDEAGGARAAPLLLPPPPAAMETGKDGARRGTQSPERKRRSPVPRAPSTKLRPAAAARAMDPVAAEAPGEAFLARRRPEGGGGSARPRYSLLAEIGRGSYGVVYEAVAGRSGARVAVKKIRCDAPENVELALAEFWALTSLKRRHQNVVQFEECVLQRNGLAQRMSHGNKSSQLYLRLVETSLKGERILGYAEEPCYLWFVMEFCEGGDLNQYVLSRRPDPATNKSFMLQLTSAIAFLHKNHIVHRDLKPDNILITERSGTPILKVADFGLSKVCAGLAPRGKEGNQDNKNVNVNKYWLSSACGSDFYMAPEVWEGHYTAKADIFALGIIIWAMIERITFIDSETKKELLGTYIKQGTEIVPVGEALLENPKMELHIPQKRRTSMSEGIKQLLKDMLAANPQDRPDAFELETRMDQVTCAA

[41] = target: STK38 (human) (UniProt Q15208)
Sequence of STK38 (human) (Q15208 whole entry, looked up): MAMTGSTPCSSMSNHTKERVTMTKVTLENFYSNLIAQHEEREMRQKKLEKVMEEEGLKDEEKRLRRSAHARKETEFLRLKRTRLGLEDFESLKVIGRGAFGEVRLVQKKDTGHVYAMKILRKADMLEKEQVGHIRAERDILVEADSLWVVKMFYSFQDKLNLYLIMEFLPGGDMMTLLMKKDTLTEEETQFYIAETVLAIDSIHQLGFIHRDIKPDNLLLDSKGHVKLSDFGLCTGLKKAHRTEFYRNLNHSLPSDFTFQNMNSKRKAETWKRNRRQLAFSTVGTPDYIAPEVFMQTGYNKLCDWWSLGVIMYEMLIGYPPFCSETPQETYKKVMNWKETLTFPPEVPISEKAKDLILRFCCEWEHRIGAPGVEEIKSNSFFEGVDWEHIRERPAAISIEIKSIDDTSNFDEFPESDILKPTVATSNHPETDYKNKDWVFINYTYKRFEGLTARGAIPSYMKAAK

[42] = target: TESK1 (human) (UniProt Q15569)

Cn1c2ccccc2c2c3c(c4c5ccccc5n(CCC#N)c4c21)CNC3=O was tested, and the kinase still bound, per cent of control [1] was 93%, the kinase still bound, per cent of control [2] was 66% and the kinase still bound, per cent of control [3] was 83%. It also gave a kinase still bound, per cent of control [4] of 100%, a kinase still bound, per cent of control [5] of 100% and a kinase still bound, per cent of control [6] of 36%. The kinase still bound, per cent of control [7] was 81%, the kinase still bound, per cent of control [8] was 100% and the kinase still bound, per cent of control [9] was 2%. It also gave a kinase still bound, per cent of control [10] of 89%, a kinase still bound, per cent of control [11] of 53% and a kinase still bound, per cent of control [12] of 82%. For the same molecule, the kinase still bound, per cent of control [13] was 95%, the kinase still bound, per cent of control [14] was 87% and the kinase still bound, per cent of control [15] was 14%. It also gave a kinase still bound, per cent of control [16] of 40%, a kinase still bound, per cent of control [17] of 71% and a kinase still bound, per cent of control [18] of 61%. It also gave a kinase still bound, per cent of control [19] of 2.1%, a kinase still bound, per cent of control [20] of 56% and a kinase still bound, per cent of control [21] of 0.1%. It also gave a kinase still bound, per cent of control [22] of 9.8%, a kinase still bound, per cent of control [23] of 100% and a kinase still bound, per cent of control [24] of 100%. The kinase still bound, per cent of control [25] was 100%, the kinase still bound, per cent of control [26] was 100% and the kinase still bound, per cent of control [27] was 1.2%. For the same molecule, the kinase still bound, per cent of control [28] was 84%, the kinase still bound, per cent of control [29] was 4.4% and the kinase still bound, per cent of control [30] was 100%. The kinase still bound, per cent of control [31] was 8.9%, the kinase still bound, per cent of control [32] was 43% and the kinase still bound, per cent of control [33] was 18%. For the same molecule, the kinase still bound, per cent of control [34] was 2.8%, the kinase still bound, per cent of control [35] was 0.6% and the kinase still bound, per cent of control [36] was 100%. The kinase still bound, per cent of control [37] was 100%, the kinase still bound, per cent of control [38] was 100% and the kinase still bound, per cent of control [39] was 92%. The kinase still bound, per cent of control [40] was 73%, the kinase still bound, per cent of control [41] was 100% and the kinase still bound, per cent of control [42] was 43%.
